B1: native PTTS: Picrophilus torridus trehalose synthase protein without the linker and hexahistidine tag (SEQ ID NO: 3) (protein, listed as Picrophilus torridus)
chain: MLDNNGLWYRDAVFYEVPVKSFYDSNNDGIGDFNGLTMKLDYLKKLGVDALWLLPFYKSPLKDDGYDISDYYSILPEYGTIDDFKNFIDTAHSMNIRVIADLVLNHVSDQHPWFIESRSSIDNPKRDWFIWSDTPEKFKEARIIFIDTEKSNWTYDPETKQYYFHRFYSSQPDLNYDNPDVRNEVKKVIRYWLDLGLDGFRADAVPYLFKRENTNCENLPETHNFFKEIRKMMDEDYPGTILLAEANQWPTETKAYFGNGDEFHMAFNFPLMPRIFIALARSDYYPIMDIIKQTLPIPDNCDWCIFLRNHDELTLEMVTDSERDIMYREYAKIPKMRLNLGIRRRLAPLADNDINTIELLNALIFSLPGTPIIYYGDEIGMGDNIYLGDRNGVRTPMQWSYDRNAGFSMADSEQLYSPVITNPNYHYESVNVEAELRLSSSLLNWMIKIIHVRKDYKELLGRGSIKFIEQGNKRVLSYIREYENQRMLCLFNLSRNPTYVELNLSDYIGLKPIEAITKAAFPRIKDDRYFITMTPRSFFWFNLIVPERDDSYDLIGED

What was measured:
Type in all cases: biochemical, Picrophilus torridus
recombinant PTTS = assay: Substrate specificity of recombinant PTTS; details: standard assay conditions
Procedure: (§1) The activity of PTTS was assayed by measuring the amount of trehalose produced from maltose. The standard reaction was performed by adding 1.5 μL purified enzyme into 50 μL reaction solution containing 50 mM sodium phosphate (pH 6.0) and 150 mM maltose and incubating in a 45° C. water bath for 25 min. The assay time was under the linear range of enzyme reaction. The reaction was terminated by heating the mixture in boiling water for 15 min. One unit of enzyme activity was defined as the amount of enzyme that catalyzes the formation of 1 μmol of trehalose per min. Kinetic analysis was performed under conditions of pH 6.0 and 45° C. for 5 min in 50 mM sodium phosphate buffer containing substrate (maltose, trehalose, or maltose plus a constant 10 mM of glucose) at various concentrations. The resulting data were analyzed offline with Origin 6.0 software (Microcal, Northampton, Mass.). All experiments were carried out in duplicate or triplicate.
(§2) The amount of trehalose, glucose, and maltose after each enzymatic reaction was measured using a high performance liquid chromatography (HPLC) (SFD 2100) system equipped with an RI detector (Schambeck S F D, RI 2000) at a flow rate of 0.9 mL/min. A carbohydrate analysis column (HYPERSIL-100 Amino, Thermo Hypersil-Keystone) equilibrated with 75% acetonitrile, 24% Milli-Q water, and 1% formic acid was used. The retention times of glucose, maltose, and trehalose were 8.0, 11.2, and 12.5 min, respectively.
Substrate Specificity of Recombinant PTTS. […] It also acted on sucrose and catalyzed the formation of glucose, fructose, and trehalulose [α-D-glucopyranosyl-(1,1)-D-fructofuranose], however, the activity is quite low. In addition, it converted the α,β-1,1-trehalose to maltose, though only about 7% just as with the α,α-1,1-trehalose.

PTTS = assay: Effects of metal ions and reagents on PTTS activity; details: 1 mM metal ion or reagent, standard assay conditions
Procedure: as §1
Effects of Metal Ions and Reagents on PTTS Activity. The effects of metal ions and reagents were determined by examining enzyme activity in the presence of 1 mM and 10 mM metal ions or reagents under standard assay conditions (FIG. 8).

[1] = Enzyme assay: amount of trehalose produced from maltose by PTTS; details: PTTS without His-tag
Procedure: as §1, §2

Row | Molecule | activity of recombinant PTTS with the substance as substrate (recombinant PTTS) | inhibition of enzyme activity (PTTS) | further results
1 | OC[C@H]1O[C@H](O[C@H]2[C@H](O)[C@@H](O)[C@H](O)O[C@@H]2CO)[C@H](O)[C@@H](O)[C@@H]1O [maltose] | converted them to each other | – | –
2 | O=C[C@H](O)[C@@H](O)[C@@H](O)[C@H](O)CO [galactose] | No detectable activities | – | –
3 | maltotriose | No detectable activities | – | –
4 | OC[C@H]1O[C@@H](O[C@@H]2O[C@H](CO)[C@@H](O)[C@H](O)[C@H]2O)[C@H](O)[C@@H](O)[C@@H]1O [β,β-1,1-trehalose] | No detectable activities | – | –
5 | OC[C@H]1O[C@@H](O[C@H]2O[C@H](CO)[C@@H](O)[C@H](O)[C@H]2O)[C@H](O)[C@@H](O)[C@@H]1O [α,β-1,1-trehalose] | – | – | conversion to maltose relative to α,α-1,1-trehalose (recombinant PTTS): about 7%
6 | [Pb+2] [Pb^2+] | – | moderately | –
7 | OC[C@H]1O[C@H](OC[C@H]2OC(O)(CO)[C@@H](O)[C@@H]2O)[C@H](O)[C@@H](O)[C@@H]1O (stereo partly shown) [isomaltulose] | No detectable activities | – | –
8 | OC[C@@H](O)[C@@H](O)[C@H](O)[C@@H](O)CO [sorbitol] | No detectable activities | – | –
9 | O=C(CO)[C@@H](O)[C@H](O)[C@H](O)CO [fructose] | No detectable activities | – | –
10 | [Hg+2] [Hg^2+] | – | inhibited strongly | –
11 | [Cd+2] [Cd^2+] | – | moderately | –
12 | OC[C@H]1O[C@H](O[C@H]2[C@H](O)[C@@H](O)[C@@H](O[C@H]3[C@H](O)[C@@H](O)[C@@H](O[C@H]4[C@H](O)[C@@H](O)[C@@H](O[C@H]5[C@H](O)[C@@H](O)C(O)O[C@@H]5CO)O[C@@H]4CO)O[C@@H]3CO)O[C@@H]2CO)[C@H](O)[C@@H](O)[C@@H]1O (stereo partly shown) [maltopentose] | No detectable activities | – | –
13 | [Cu+2] [Cu^2+] | – | moderately | –
14 | NC(CO)(CO)CO [Tris] | – | moderately | –
15 | OC[C@H]1O[C@H](O[C@H]2O[C@H](CO)[C@@H](O)[C@H](O)[C@H]2O)[C@H](O)[C@@H](O)[C@@H]1O [trehalose, α-D-glucopyranosyl α-D-glucopyranoside] | converted them to each other | – | –
16 | OC[C@H]1O[C@H](O[C@H]2[C@H](O)[C@@H](O)[C@@H](O[C@H]3[C@H](O)[C@@H](O)[C@@H](O[C@H]4[C@H](O)[C@@H](O)C(O)O[C@@H]4CO)O[C@@H]3CO)O[C@@H]2CO)[C@H](O)[C@@H](O)[C@@H]1O (stereo partly shown) [maltotetraose] | No detectable activities | – | –
17 | OC[C@H]1O[C@@H](O[C@H]2[C@H](O)[C@@H](O)C(O)O[C@@H]2CO)[C@H](O)[C@@H](O)[C@H]1O (stereo partly shown) [lactose] | No detectable activities | – | –
18 | OC[C@H]1O[C@@](CO)(O[C@H]2O[C@H](CO)[C@@H](O)[C@H](O)[C@H]2O)[C@@H](O)[C@@H]1O [sucrose] | quite low | – | –
19 | [Ag+] [Ag^+] | – | inhibited strongly | –
20 | CCCCCCCCCCCCOS(=O)(=O)[O-].[Na+] [SDS] | – | inhibited strongly | –
21 | [Al+3] [Al^3+] | – | inhibited strongly | –
22 | B1 | – | – | specific activity relative to the recombinant His-tag fusion PTTS [1]: about 1.3 fold

From patent US7927850B2, “Composition containing trehalose synthase and methods of use thereof” (Academia Sinica, priority 2006, dated 2011)
